PubChem BioAssay (NCI)
Where “and” joins values, the source holds several entries; their conditions need not be identical. Identical values can stand only once.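 Where inhibition never reached the appropriate level, the endpoint shown equals the highest concentration tested. Otherwise, values were interpolated linearly from a five-concentration, 48-hour dose response in 96-well plates. Here, GI50 denotes the concentration required for 50% inhibition of growth. Definition used: TGI = concentration required for complete inhibition of growth.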

Test system: A549 NSCLC
Experiment: NCI anticancer screen, dose series, 48 h

Compound | GI50 | TGI
O=C1/C(=C/c2cccc([N+](=O)[O-])c2)COc2ccc(O)cc21 | 4.66 µM | 16.8 µM
C[C@]12CC[C@H](O)CC1=CC[C@@H]1C2CC[C@]2(C)C(=O)N(N)C(=O)CC12 (some centres undefined) |  | > 100 µM
CC(C)=CC(=O)C1c2cccc(O)c2C(=O)c2c(O)cc(C)cc21 (centres undefined) |  | 4.31 µM
O=C1C=C(Cl)C(=O)C(c2ccc(Cl)cc2)=C1 |  | > 100 µM
CCOc1ccc(NC(=O)C(=O)CC(=O)c2c[n+](=O)c3cc(C)c(C)cc3n2[O-])cc1 |  | > 100 µM
CN1C(=O)C(C)(C)C2(SC(C)(C)C2(C)C)N(C)C1=S (centres undefined) |  | > 100 µM
O=C1C(Cl)=C(Nc2cccc(Cl)c2)C(=O)N1Cc1ccc(Cl)cc1Cl | 3.85 µM | 19.6 µM
O=C(/C=C/C12c3ccccc3C(c3ccccc31)C1C(=O)NC(=O)C12)c1ccncc1 (centres undefined) | 13.4 µM | 27.2 µM
CC12CCC(O)CC1CCC1C2CCC2(C)C(C3=CC(=O)OC3)CCC12O (centres undefined) |  | 1.96 µM
COc1ccc2c(c1)/C(=C/c1c(C)nc3sc(C)nn13)C(=O)N2 | 7.74 µM | > 100 µM
Cc1ccc(C(=O)/C(=C/c2ccc([N+](=O)[O-])cc2)SCc2ccc(Cl)cc2)cc1 | 98.5 µM | > 100 µM
O=C(Nc1ccc(Cl)c(Cl)c1)Nc1ccc(Cl)c(Cl)c1 | 2.98 µM and 2.29 µM | 15.6 µM and 10.6 µM

Test system: CCRF-CEM leukemia
Experiment: NCI anticancer screen, dose series, 48 h

Compound | GI50 | TGI
O=C1/C(=C/c2cccc([N+](=O)[O-])c2)COc2ccc(O)cc21 | 0.408 µM | 1.85 µM
C[C@]12CC[C@H](O)CC1=CC[C@@H]1C2CC[C@]2(C)C(=O)N(N)C(=O)CC12 (some centres undefined) |  | > 100 µM
CC(C)=CC(=O)C1c2cccc(O)c2C(=O)c2c(O)cc(C)cc21 (centres undefined) |  | > 100 µM
O=C1C=C(Cl)C(=O)C(c2ccc(Cl)cc2)=C1 |  | 15.9 µM
CCOc1ccc(NC(=O)C(=O)CC(=O)c2c[n+](=O)c3cc(C)c(C)cc3n2[O-])cc1 |  | > 100 µM
CN1C(=O)C(C)(C)C2(SC(C)(C)C2(C)C)N(C)C1=S (centres undefined) |  | > 100 µM
O=C1C(Cl)=C(Nc2cccc(Cl)c2)C(=O)N1Cc1ccc(Cl)cc1Cl | 4.38 µM | > 100 µM
O=C(/C=C/C12c3ccccc3C(c3ccccc31)C1C(=O)NC(=O)C12)c1ccncc1 (centres undefined) | 2.39 µM | 8.87 µM
CC12CCC(O)CC1CCC1C2CCC2(C)C(C3=CC(=O)OC3)CCC12O (centres undefined) |  | > 100 µM
COc1ccc2c(c1)/C(=C/c1c(C)nc3sc(C)nn13)C(=O)N2 | 2.52 µM | > 100 µM
Cc1ccc(C(=O)/C(=C/c2ccc([N+](=O)[O-])cc2)SCc2ccc(Cl)cc2)cc1 | 0.283 µM | > 100 µM
O=C(Nc1ccc(Cl)c(Cl)c1)Nc1ccc(Cl)c(Cl)c1 | 3.36 µM and 1.97 µM | 14.1 µM and 6.47 µM

Test system: EKVX NSCLC
Experiment: NCI anticancer screen, dose series, 48 h

Compound | GI50 | TGI
O=C1/C(=C/c2cccc([N+](=O)[O-])c2)COc2ccc(O)cc21 | 3.86 µM | 13.7 µM
C[C@]12CC[C@H](O)CC1=CC[C@@H]1C2CC[C@]2(C)C(=O)N(N)C(=O)CC12 (some centres undefined) |  | > 100 µM
CC(C)=CC(=O)C1c2cccc(O)c2C(=O)c2c(O)cc(C)cc21 (centres undefined) |  | 31.5 µM
O=C1C=C(Cl)C(=O)C(c2ccc(Cl)cc2)=C1 |  | 30.2 µM
CCOc1ccc(NC(=O)C(=O)CC(=O)c2c[n+](=O)c3cc(C)c(C)cc3n2[O-])cc1 |  | > 100 µM
CN1C(=O)C(C)(C)C2(SC(C)(C)C2(C)C)N(C)C1=S (centres undefined) |  | > 100 µM
O=C1C(Cl)=C(Nc2cccc(Cl)c2)C(=O)N1Cc1ccc(Cl)cc1Cl | 9.31 µM | 34.4 µM
O=C(/C=C/C12c3ccccc3C(c3ccccc31)C1C(=O)NC(=O)C12)c1ccncc1 (centres undefined) | 6.02 µM | 20.8 µM
CC12CCC(O)CC1CCC1C2CCC2(C)C(C3=CC(=O)OC3)CCC12O (centres undefined) |  | 5.88 µM
COc1ccc2c(c1)/C(=C/c1c(C)nc3sc(C)nn13)C(=O)N2 | 8.36 µM | > 100 µM
Cc1ccc(C(=O)/C(=C/c2ccc([N+](=O)[O-])cc2)SCc2ccc(Cl)cc2)cc1 | 3.04 µM | 13.9 µM
O=C(Nc1ccc(Cl)c(Cl)c1)Nc1ccc(Cl)c(Cl)c1 | 2.36 µM | 11.1 µM

Test system: HCC-2998 colon
Experiment: NCI anticancer screen, dose series, 48 h

Compound | GI50 | TGI
O=C1/C(=C/c2cccc([N+](=O)[O-])c2)COc2ccc(O)cc21 | 1.75 µM | 3.21 µM
C[C@]12CC[C@H](O)CC1=CC[C@@H]1C2CC[C@]2(C)C(=O)N(N)C(=O)CC12 (some centres undefined) |  | > 100 µM
CC(C)=CC(=O)C1c2cccc(O)c2C(=O)c2c(O)cc(C)cc21 (centres undefined) |  | 5.67 µM
O=C1C=C(Cl)C(=O)C(c2ccc(Cl)cc2)=C1 |  | 34.2 µM
CCOc1ccc(NC(=O)C(=O)CC(=O)c2c[n+](=O)c3cc(C)c(C)cc3n2[O-])cc1 |  | > 100 µM
CN1C(=O)C(C)(C)C2(SC(C)(C)C2(C)C)N(C)C1=S (centres undefined) |  | > 100 µM
O=C1C(Cl)=C(Nc2cccc(Cl)c2)C(=O)N1Cc1ccc(Cl)cc1Cl | 4.23 µM | 18.8 µM
O=C(/C=C/C12c3ccccc3C(c3ccccc31)C1C(=O)NC(=O)C12)c1ccncc1 (centres undefined) | 1.87 µM | 3.68 µM
CC12CCC(O)CC1CCC1C2CCC2(C)C(C3=CC(=O)OC3)CCC12O (centres undefined) |  | 10.2 µM
COc1ccc2c(c1)/C(=C/c1c(C)nc3sc(C)nn13)C(=O)N2 | 0.632 µM | 7.86 µM
Cc1ccc(C(=O)/C(=C/c2ccc([N+](=O)[O-])cc2)SCc2ccc(Cl)cc2)cc1 | 1.67 µM | 3.37 µM
O=C(Nc1ccc(Cl)c(Cl)c1)Nc1ccc(Cl)c(Cl)c1 | 3.71 µM and 3.01 µM | 13.4 µM and 11.5 µM

Test system: HL-60(TB) leukemia
Experiment: NCI anticancer screen, dose series, 48 h

Compound | GI50 | TGI
O=C1/C(=C/c2cccc([N+](=O)[O-])c2)COc2ccc(O)cc21 | 1.69 µM | 4.03 µM
C[C@]12CC[C@H](O)CC1=CC[C@@H]1C2CC[C@]2(C)C(=O)N(N)C(=O)CC12 (some centres undefined) |  | > 100 µM
CC(C)=CC(=O)C1c2cccc(O)c2C(=O)c2c(O)cc(C)cc21 (centres undefined) |  | 9.15 µM
O=C1C=C(Cl)C(=O)C(c2ccc(Cl)cc2)=C1 |  | 42.8 µM
CCOc1ccc(NC(=O)C(=O)CC(=O)c2c[n+](=O)c3cc(C)c(C)cc3n2[O-])cc1 |  | > 100 µM
CN1C(=O)C(C)(C)C2(SC(C)(C)C2(C)C)N(C)C1=S (centres undefined) |  | > 100 µM
O=C1C(Cl)=C(Nc2cccc(Cl)c2)C(=O)N1Cc1ccc(Cl)cc1Cl | 7.66 µM | > 100 µM
O=C(/C=C/C12c3ccccc3C(c3ccccc31)C1C(=O)NC(=O)C12)c1ccncc1 (centres undefined) | 1.76 µM | 6.1 µM
CC12CCC(O)CC1CCC1C2CCC2(C)C(C3=CC(=O)OC3)CCC12O (centres undefined) |  | 8.36 µM
COc1ccc2c(c1)/C(=C/c1c(C)nc3sc(C)nn13)C(=O)N2 | 0.663 µM | 
Cc1ccc(C(=O)/C(=C/c2ccc([N+](=O)[O-])cc2)SCc2ccc(Cl)cc2)cc1 | 2.35 µM | 7.29 µM
O=C(Nc1ccc(Cl)c(Cl)c1)Nc1ccc(Cl)c(Cl)c1 | 2.58 µM and 2.16 µM | 7.24 µM and 6.68 µM
